Results on 29 compounds are retold here after patent publication US10774051B2, “6-membered heterocyclic derivatives and pharmaceutical composition comprising the same” (Shionogi & Co., Ltd., priority 2015, dated 2020).

Where only a bound is given, the exact number is not on record here.

The first assay deals with human P2X7 receptor (Homo sapiens, UniProt Q99572, R270H/Y155H). Kind of assay: Evaluation of human P2X7 receptor inhibitory activity (Yo-Pro uptake, BzATP stimulation, FLIPR TETRA). The format is cell-based. The settings on record: 1321N1 cells stably expressing human P2X7 receptor; BzATP stimulation, Yo-Pro uptake; read-out: IC50 (antagonistic activity for the human P2X7 receptor). In short, it runs like this: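 Yo-Pro dye uptake triggered by BzATP was monitored by FLIPR in human P2X7-transfected 1321N1 cells (SNP variant) in HEPES-buffered HBSS, pH 7.4-7.5. Compound was dispensed 8 min post-stimulation, then signal read for 20 min; IC50 derived logistically from inhibition of the fluorescence range.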
For the compound `COc1cn(Cc2ccccc2)c(Nc2cncc(Cl)c2C)nc1=O` [Compound I-0185], the IC50 (as a rule, the concentration that gives 50% inhibition) was determined as 270 nM.

On to `Cc1cc2c(cc1Nc1nc(=O)c(F)cn1Cc1ccc(F)cc1)OCCO2` [Compound I-0367], for which the IC50 was 13 nM.

Turning to `COc1cc(C)c(Nc2nc(=O)c(OC)cn2Cc2cc(F)cc(Cl)c2)cc1OC` [Compound I-0452], the IC50 amounted to 110 nM. With `COc1cn(Cc2cc(F)c(F)c(F)c2)c(Nc2cc3sc(C)nc3cc2C)nc1=NC#N` [Compound I-1285], the IC50 was determined as 27 nM.

The assay is the same for the next values; noted with them: 1321N1 cells stably expressing human P2X7 receptor; BzATP stimulation, Yo-Pro uptake; read-out: IC50 (antagonistic activity for the human P2X7 receptor), class symbol.
`COc1cn(Cc2cc(F)cc(F)c2)c(Nc2cc(C)c(OC(F)F)cc2C)nc1=O` [Compound I-0355]: the IC50 is below 10 nM. Take `COc1cn(Cc2ccccc2OC(F)F)c(Nc2cccc(Cl)c2C)nc1=O` [Compound I-0421]: the IC50 was in the range of 10 to 100 nM. The same measure, in the same setting: with `COc1cc(C)c(Nc2nc(=O)c(Cl)cn2Cc2ccc(F)cc2)cc1OC` [Compound I-0406] the figure was below 10 nM; with `Cc1c(Cl)cccc1Nc1nc(=O)c(Cl)cn1Cc1ccc(F)c(F)c1` [Compound I-0472], below 10 nM. Still for that read-out and setting: with `Cc1c(Cl)cccc1Nc1nc(=O)c(CC(=O)N(C)C)cn1Cc1ccccc1` [Compound I-0331] the figure was 100 to 500 nM; with `COc1cn(Cc2ccc(F)c(Cl)c2)c(Nc2ccc(N(C)C)cc2C)nc1=O` [Compound I-0248], 10 to 100 nM. On the same count and under the same terms, with `COc1cn(Cc2cccc(Cl)c2)c(Nc2cccc(Cl)c2C)nc1=O` [Compound I-0126] the figure was 10 to 100 nM; with `COc1cn(Cc2ccc(F)cc2)c(Nc2cc(C)c(Cl)cc2C)nc1=O` [Compound I-0169], below 10 nM; with `CCCc1ccccc1Nc1nc(=O)c(OC)cn1Cc1ccccc1` [Compound I-0109], 500 to 1000 nM.

The same assay, now with this note: antagonistic activity for the human P2X7 receptor; read-out: IC50.
With `Cc1c(Nc2nc(=O)ccn2Cc2cc(F)cc(F)c2)ccc2[nH]ccc12` [Compound I-1171], the IC50 was below 10 nM. As for `Cc1nc2[nH]ccc2cc1Nc1nc(=O)c(F)cn1Cc1ccc(F)c(Cl)c1` [Compound I-1091], the IC50 lay within 10 to 100 nM. On the same count and under the same terms, with `COc1cn(Cc2ccc(F)c(Cl)c2)c(Nc2cccc3c(=O)n(C)ccc23)nc1=O` [Compound I-0902] the figure was 10 to 100 nM; with `COC(=O)/C=C/c1ccc(C)c(Nc2nc(=O)c(OC)cn2Cc2cc(F)c(F)c(F)c2)c1` [Compound I-1079], 10 to 100 nM; with `CN=c1nc(Nc2cc(C)ccc2C)n(Cc2cc(F)c(F)c(F)c2)cc1F` [Compound I-1289], 100 to 500 nM. `COc1cn(Cc2cc(F)c(F)c(F)c2)c(Nc2ccc(OCF)cc2C)nc1=O` [Compound I-0943]: the IC50 is below 10 nM. Turning to `COc1cc(C)c(Nc2nc(=O)c(C(N)=O)cn2Cc2ccc(F)c(F)c2)cc1C` [Compound I-1158], the IC50 was below 10 nM.

Take `COc1cn(Cc2cc(F)cc(F)c2)c(Nc2cc(Cl)cc3[nH]ccc23)nc1=O` [Compound I-0822]: the IC50 fell in the range of 10 to 100 nM. On the same count and under the same terms, with `Cc1ccc(OCCO)cc1Nc1nc(=O)c(C)cn1Cc1cc(F)c(F)c(F)c1` [Compound I-1145] the figure was 10 to 100 nM; with `COc1cc(C)c(Nc2nc(=O)c(OC)cn2Cc2cc(F)cc(F)c2)cc1Cl` [Compound I-0617], below 10 nM. Regarding `Cc1cc(C)c(OC(F)F)cc1Nc1nc(=O)c(F)cn1Cc1cc(F)c(F)c(F)c1` [Compound I-1230], the IC50 was below 10 nM. For `COCc1cn(Cc2cc(F)c(F)c(F)c2)c(Nc2ccc(OC(F)F)cc2C)nc1=O` [Compound I-1124], the IC50 lay in the range of 10 to 100 nM. Still for that read-out and setting: with `COc1ccc(Nc2nc(=O)c(C(=O)O)cn2Cc2cc(F)c(F)c(F)c2)c(C)c1` [Compound I-1099] the figure was 10 to 100 nM; with `COc1ccc(Nc2nc(=O)c(C(N)=O)cn2Cc2cc(F)c(F)c(F)c2)c(C)c1` [Compound I-1100], 10 to 100 nM; with `COc1ccc(Nc2nc(=O)c(F)cn2Cc2cc(F)c(F)c(F)c2)c(C)c1F` [Compound I-1245], below 10 nM. As for `COc1cc(C)c(Nc2nc(=NC#N)c(F)cn2Cc2cc(F)c(F)c(F)c2)cc1OC` [Compound I-1288], the IC50 lay in the range of 10 to 100 nM.
